According to PubChem BioAssay (NCI):
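Cells were grown in 96-well plates and exposed to each compound for 48 hours at five concentrations; endpoints were interpolated linearly between bracketing concentrations, or set to the highest concentration if not reached. Definition used: TGI = concentration required for complete inhibition of growth.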

Key:
Test in all cases: NCI anticancer screen, dose series, 48 h
TK-10 renal = test system: TK-10 renal
NCI-H522 lung = test system: NCI-H522 lung
SK-OV-3 ovarian = test system: SK-OV-3 ovarian
MCF7 breast = test system: MCF7 breast
RXF 393 renal = test system: RXF 393 renal
HCT-116 colon = test system: HCT-116 colon
NCI/ADR-RES ovarian = test system: NCI/ADR-RES ovarian
IGROV1 ovarian = test system: IGROV1 ovarian
A549 NSCLC = test system: A549 NSCLC
UO-31 renal = test system: UO-31 renal
SK-MEL-28 melanoma = test system: SK-MEL-28 melanoma
T-47D breast = test system: T-47D breast
SF-268 CNS = test system: SF-268 CNS
SK-MEL-5 melanoma = test system: SK-MEL-5 melanoma
SNB-75 CNS = test system: SNB-75 CNS
ACHN renal = test system: ACHN renal
OVCAR-4 ovarian = test system: OVCAR-4 ovarian
OVCAR-3 ovarian = test system: OVCAR-3 ovarian
CCRF-CEM leukemia = test system: CCRF-CEM leukemia
NCI-H23 lung = test system: NCI-H23 lung
SF-539 CNS = test system: SF-539 CNS
MDA-MB-435 = test system: MDA-MB-435
HCT-15 colon = test system: HCT-15 colon
RPMI-8226 leukemia = test system: RPMI-8226 leukemia
A498 renal = test system: A498 renal
MALME-3M melanoma = test system: MALME-3M melanoma
SNB-19 CNS = test system: SNB-19 CNS
MDA-N = test system: MDA-N
KM12 colon = test system: KM12 colon
K-562 leukemia = test system: K-562 leukemia
HOP-62 NSCLC = test system: HOP-62 NSCLC
CAKI-1 renal = test system: CAKI-1 renal
SN12C renal = test system: SN12C renal
786-0 renal = test system: 786-0 renal
DU-145 prostate = test system: DU-145 prostate
HL-60(TB) leukemia = test system: HL-60(TB) leukemia
NCI-H460 lung = test system: NCI-H460 lung
COLO 205 colon = test system: COLO 205 colon
HCC-2998 colon = test system: HCC-2998 colon
NCI-H226 lung = test system: NCI-H226 lung
MDA-MB-231 breast = test system: MDA-MB-231 breast
UACC-62 melanoma = test system: UACC-62 melanoma
LOX IMVI melanoma = test system: LOX IMVI melanoma
HS 578T breast = test system: HS 578T breast
PC-3 prostate = test system: PC-3 prostate
BT-549 breast = test system: BT-549 breast
U251 CNS = test system: U251 CNS
SK-MEL-2 melanoma = test system: SK-MEL-2 melanoma
SF-295 CNS = test system: SF-295 CNS
OVCAR-8 ovarian = test system: OVCAR-8 ovarian
SW-620 colon = test system: SW-620 colon
M14 melanoma = test system: M14 melanoma
UACC-257 melanoma = test system: UACC-257 melanoma
MOLT-4 leukemia = test system: MOLT-4 leukemia
EKVX NSCLC = test system: EKVX NSCLC
OVCAR-5 ovarian = test system: OVCAR-5 ovarian
HT29 colon = test system: HT29 colon
HOP-92 NSCLC = test system: HOP-92 NSCLC

Nc1c(OCC(=O)O)ccc2cc(S(=O)(=O)O)ccc12
TGI (TK-10 renal): > 100 µM
TGI (NCI-H522 lung): > 100 µM
TGI (SK-OV-3 ovarian): > 100 µM
TGI (MCF7 breast): > 100 µM
TGI (RXF 393 renal): > 100 µM
TGI (HCT-116 colon): > 100 µM
TGI (NCI/ADR-RES ovarian): > 100 µM
TGI (IGROV1 ovarian): > 100 µM
TGI (A549 NSCLC): > 100 µM
TGI (UO-31 renal): > 100 µM
TGI (SK-MEL-28 melanoma): > 100 µM
TGI (T-47D breast): > 100 µM
TGI (SF-268 CNS): > 100 µM
TGI (SK-MEL-5 melanoma): > 100 µM
TGI (SNB-75 CNS): > 100 µM
TGI (ACHN renal): > 100 µM
TGI (OVCAR-4 ovarian): > 100 µM
TGI (OVCAR-3 ovarian): > 100 µM
TGI (CCRF-CEM leukemia): > 100 µM
TGI (NCI-H23 lung): > 100 µM
TGI (SF-539 CNS): > 100 µM
TGI (MDA-MB-435): > 100 µM
TGI (HCT-15 colon): > 100 µM
TGI (RPMI-8226 leukemia): > 100 µM
TGI (A498 renal): > 100 µM
TGI (MALME-3M melanoma): > 100 µM
TGI (SNB-19 CNS): > 100 µM
TGI (MDA-N): > 100 µM
TGI (KM12 colon): > 100 µM
TGI (K-562 leukemia): > 100 µM
TGI (HOP-62 NSCLC): > 100 µM
TGI (CAKI-1 renal): > 100 µM
TGI (SN12C renal): > 100 µM
TGI (786-0 renal): > 100 µM
TGI (DU-145 prostate): > 100 µM
TGI (HL-60(TB) leukemia): > 100 µM
TGI (NCI-H460 lung): > 100 µM
TGI (COLO 205 colon): > 100 µM
TGI (HCC-2998 colon): > 100 µM
TGI (NCI-H226 lung): > 100 µM
TGI (MDA-MB-231 breast): > 100 µM
TGI (UACC-62 melanoma): > 100 µM
TGI (LOX IMVI melanoma): > 100 µM
TGI (HS 578T breast): > 100 µM
TGI (PC-3 prostate): > 100 µM
TGI (BT-549 breast): > 100 µM
TGI (U251 CNS): > 100 µM
TGI (SK-MEL-2 melanoma): > 100 µM
TGI (SF-295 CNS): > 100 µM
TGI (OVCAR-8 ovarian): > 100 µM
TGI (SW-620 colon): > 100 µM
TGI (M14 melanoma): > 100 µM
TGI (UACC-257 melanoma): > 100 µM

CN(C)CCNCc1ccc2c(-c3ccccc3)nc3cc(Cl)c(Cl)cc3n12
TGI (TK-10 renal): 22.2 µM
TGI (NCI-H522 lung): 27.8 µM
TGI (SK-OV-3 ovarian): 17.4 µM
TGI (MOLT-4 leukemia): 21.6 µM
TGI (MCF7 breast): 19.1 µM
TGI (RXF 393 renal): 10 µM
TGI (HCT-116 colon): 16.3 µM
TGI (NCI/ADR-RES ovarian): 31.4 µM
TGI (IGROV1 ovarian): 22.6 µM
TGI (A549 NSCLC): 24.3 µM
TGI (UO-31 renal): 14.7 µM
TGI (SK-MEL-28 melanoma): 14.1 µM
TGI (T-47D breast): 15.1 µM
TGI (EKVX NSCLC): 30.2 µM
TGI (SF-268 CNS): 29.7 µM
TGI (SK-MEL-5 melanoma): 16.4 µM
TGI (SNB-75 CNS): 20.2 µM
TGI (ACHN renal): 14.8 µM
TGI (OVCAR-4 ovarian): 26.7 µM
TGI (OVCAR-5 ovarian): 26.1 µM
TGI (OVCAR-3 ovarian): 35.9 µM
TGI (CCRF-CEM leukemia): 29.4 µM
TGI (NCI-H23 lung): 28.9 µM
TGI (SF-539 CNS): 14.4 µM
TGI (MDA-MB-435): 21.9 µM
TGI (HCT-15 colon): 23.2 µM
TGI (RPMI-8226 leukemia): 36.8 µM
TGI (A498 renal): 29.9 µM
TGI (MALME-3M melanoma): 33.1 µM
TGI (SNB-19 CNS): 28.9 µM
TGI (MDA-N): 23.4 µM
TGI (KM12 colon): 24.7 µM
TGI (K-562 leukemia): 31.9 µM
TGI (HOP-62 NSCLC): 27.4 µM
TGI (CAKI-1 renal): 18.9 µM
TGI (SN12C renal): 24.2 µM
TGI (786-0 renal): 15.2 µM
TGI (DU-145 prostate): 23.3 µM
TGI (HL-60(TB) leukemia): 11.6 µM
TGI (NCI-H460 lung): 23.9 µM
TGI (COLO 205 colon): 14.1 µM
TGI (HCC-2998 colon): 5.83 µM
TGI (NCI-H226 lung): 37.5 µM
TGI (MDA-MB-231 breast): 25.2 µM
TGI (UACC-62 melanoma): 17.7 µM
TGI (LOX IMVI melanoma): 14.9 µM
TGI (HS 578T breast): 47.6 µM
TGI (PC-3 prostate): 27.3 µM
TGI (BT-549 breast): 30.9 µM
TGI (HT29 colon): 16.7 µM
TGI (U251 CNS): 22.7 µM
TGI (SK-MEL-2 melanoma): 20.6 µM
TGI (SF-295 CNS): 27.7 µM
TGI (OVCAR-8 ovarian): 27.7 µM
TGI (SW-620 colon): 28.3 µM
TGI (M14 melanoma): 15.3 µM
TGI (UACC-257 melanoma): 19.9 µM
TGI (HOP-92 NSCLC): 28.3 µM
